Measured values from patent US7244712B2, “Aminoglycoside antibiotics and methods of using same” (priority 2004, dated 2007).
Converted amounts (≈) assume the structure as drawn.

Key:
[1] = system: E. coli S30 extract, containing 70S ribosomes; test: In vitro protein translation (CAT mRNA, 35S methionine incorporation); format: biochemical; conditions: quantitation of gel bands, read-out: IC50, concentration producing 50% inhibition of translation
Experimental: Protein translation was performed from chloramphenicol acetyl transferase (CAT) mRNA. […] A commercial E. coli ribosomal suspension was supplemented with an E. coli extract containing the required elements for translation. These include translation factors, tRNAs, and aminoacyl tRNA synthases. Plasmid, T7 RNA polymerase and amino acids were added to the reaction mixture, and both transcription and translation steps were performed in the same vial. The effects of the aminoglycosides on the translation process were evaluated by measuring the incorporation of ^35S methionine in the translated chloramphenicol acetyl transferase protein.
In vitro translation was performed by using PROTEINscript™-PRO (Ambion) kit. […] Reaction mixtures contained appropriate concentrations of antibiotic (neomycin B, D- and L-neamine). The protein was translated from CAT mRNA, transcribed from control DNA template containing CAT gene under control of the T7 promotor. The product, ˜25 kDa chloramphenicol acetyl transferase, was labeled during translation with 1 μCi ^35S methionine (New England Nuclear) per reaction (no cold methionine was added).
Following the translation, the samples were analyzed by electrophoresis on 4-20% SDS mini-gels (Invitrogen) for 1.5 h at 120V. Gels were fixed with 40% methanol/10% acetic acid and exposed to Molecular Dynamics phosphoimager plates, which were read on a Personal FX phosphoimager (Bio-Rad) and quantitated using QuantityOne™ software.

[2] = system: S. aureus; test: Antibacterial activity against S. aureus; format: cell-based
[3] = molecular target: 70S ribosome; test: Fluorescence anisotropy binding to 70S ribosomes; conditions: competition with CRP, E. coli ribosomes; read-out: Dissociation constant (KD) with 70S ribosome
Experimental: After establishing the lack of stereospecificity in the binding of aminoglycosides to the A-site RNA constructs (FIG. 9A-C) where the binding affinity, KD, is about 0.1 μM to about 100 μM, the stereospecificity of aminoglycoside binding to intact ribosomes was determined. Both yeast and E. coli ribosomes were prepared and aminoglycoside binding was measured using fluorescence anisotropy methods. For example, fluorescence anisotropy methods recited in Wang, Y., and Rando, R. R. Chem. Biol. (1995) 2, 281-290; and Wang, Y., Hamasaki, K., and Rando, R. R. Biochemistry (1997) 36,768-779. CRP was used as the binding probe. […] Binding data reported herein for aminoglycoside compounds with eukaryotic yeast ribosomes are similar to binding data for said aminoglycoside compounds with ribosoimes in bacteria and with eukaryotic A-site rRNA constructs.
5-Carboxytetramethylrhodamine-labeled paromomycin (CRP) and tobramycin (CRT) concentrations were determined spectroscopically at 550 nm using a molar extinction coefficient of 6.00×10 4 M −1 cm −1. Fluorescence anisotropy measurements were performed on a Perkin-Elmer LS-50B luminescence spectrometer equipped with a thermostat accurate to ±0.1° C. as indicated previously (Wang, Y., Hamasaki, K., & Rando, R. R. (1997) Biochemistry 36, 768-779). The tracer solution was excited at 550 nm and monitored at 580 nm. The integration time was 5 s. For every point, 6 measurements were taken, and their average values were used for calculation. Measurements were carried out in a buffer solution containing 150 mM NaCl, 5 mM KCl, 1 mM CaCl2, 1 mM MgCl2, and 20 mM HEPES (pH 7.5). Prior to measurements, RNA constructs were renatured by incubating in binding buffer {150 mM NaCl, 5 mM KCl, 1 mM CaCl2, 1 mM MgCl2, and 20 mM HEPES (pH 7.5)} for 3 minutes at 90° C. followed by slow cooling to 25° C.
Equation 1 was used for the determination of the dissociation constant (Kd) for the interactions between RNA or ribosome and CRP. A=A0+DA{(RNA)0+(CRP)0+Kd−({(RNA)0+(CRP)0+Kd}^2−4(RNA)0(CRP)0)½}/2 where A and A0 are the fluorescence anisotropy of CRP in the presence and absence of RNA, respectively, and DA is the difference between the fluorescence anisotropy of CRP in the presence of an extrapolated infinite concentration of RNA minus the fluorescence anisotropy in the absence of RNA. (RNA)0 and (CRP)0 are the initial concentrations of RNA and CRP, respectively.
Equation 2 is used for the calculation of the KD values in the competition binding assay. (aminoglycoside)0={KD(A−−A)/Kd(A−A0)+1}{(RNA)0−Kd(A−A0)/(A−−A)−(CRP)0(A−A0)/(A−−A)} where KD is the dissociation constant between the RNA and the aminoglycosides; (aminoglycoside)0 is the initial concentration of the aminoglycosides; AL is anisotropy of completely bound tracer. Both Kd and KD were determined by non-linear curve fitting using the equations described above, and are presented as mean values of three independent measurements.
The purification of E. coli (E600) 70S ribosomes was carried out according to the published procedure (Lazaro, E., van den Broek, L. A. G. M., Felix, A. S., Ottenheijm, H. C. J., Ballesta, J. P. G. (1991) Biochemistry 30, 9642-9648). E. coli MRE600 were grown for 12 h in 6L of LB medium (10 g trypton, 5 g yeast extract, 5 g NaCl per 1 L, pH 7.0) at 37° C. Crude ribosomes were precipitated from clarified supernatant by 4 h centrifugation at 25,000 rpm in Beckman SW 28 rotor at 4° C. The ribosome pellets were collected in 5 mL of buffer BR1, containing 10 mM HEPES, pH 7.5, 500 mM ammonium acetate, 100 mM magnesium chloride and 2.5 mM DTT. The ribosome suspension was centrifuged for 20 min at 15000 rpm to be clarified. The clarified sample was loaded over two layers of 20% and 40% sucrose in buffer BR1 and centrifuged for 18 hr at 19000 rpm in Beckman SW28 rotor at 4° C. […]

[4] = system: E. coli (ATCC 25922); test: MIC, wild type E. coli; format: cell-based; conditions: growth inhibition greater than 90%
Experimental: (§1) Minimal inhibitory concentrations (MIC) were measured according to the published method (Greenberg, W. A., Priestley, E. S., Sears, P. S., Alper, P. B., Rosenbohm, C., Hendrix, M., Hung, S.-C., & Wong, C.-H. (1999) J. Am. Chem. Soc. 121, 6527-6541). E. coli (ATCC 25922) (both wild type and pMM-transformed) and P. aeruginosa (ATCC 27853) were grown in medium 2 to an optical density OD 600 of 0.6-0.8. The inoculi were diluted to OD 600 ˜0.1 in medium 2 and 1 mL of the culture was placed in 13 mL test tubes. The desired concentrations of antibiotic were added from stock solutions. […] The absorbance at 600 nm of each sample was read and MIC was taken as the lowest antibiotic concentration inhibiting bacterial growth by greater than 90%.

[5] = system: P. aeruginosa (ATCC 27853); test: MIC, P. aeruginosa; format: cell-based; conditions: growth inhibition greater than 90%
Experimental: as §1

[6] = system: E. coli (ATCC 25922) transformed with pMM plasmid bearing APH(3')IIa; test: MIC, kanamycin/neomycin resistant E. coli; format: cell-based; conditions: growth inhibition greater than 90%
Experimental: E. coli (ATCC 25922) and P. aeruginosa (ATCC 27853) (BD Bioscience) were inoculated in 3 mL of the medium 2 (U.S. Pharmacopia), containing 6 g peptone, 3 g yeast extract and 1.5 g beef extract per 1 L, pH 6.6, and were grown in a shaker for 6 h at 37° C. until an OD 560=0.6-0.8 was reached.
as §1

NCC1OC(OC2C(N)CC(N)C(O)C2O)C(N)C(O)C1O [L-Neamine]
IC50 [1]: 195 µM | Antibacterial activity against S. aureus [2]: little to no antibacterial activity | Kd [3]: 2.69 ± 0.46 µM | Minimal inhibitory concentration (MIC), E. coli [4]: 1300 µM (≈ 419 µg/mL) | Minimal inhibitory concentration (MIC), P. aeruginosa [5]: 1600 µM (≈ 516 µg/mL) | Minimal inhibitory concentration (MIC), E. coli kan/neo resistant [6]: 2100 µM (≈ 677 µg/mL)
